# How the values were obtained:
# [1] = biological target: T1, GST tagged LXRbeta LBD (ligand binding domain) (Homo sapiens, UniProt P55055); experiment: LanthaScreen TR-FRET Liver X Receptor Coactivator Assay, LXR beta-LBD (co-activator recruitment; IP and % Emax relative to T0901317); type: biochemical; conditions: for EC50: Inflection Point of co-activator recruitment, LXR beta-LBD, TR-FRET; for Emax: efficacy at max dose in relation to reference T0901317, LXR beta-LBD, read-out: LXR beta actiivty at max dose (%)
# T1 construct: purchased Invitrogen pv4658.pps
# T1 sequence (P55055 222-460 limits assumed): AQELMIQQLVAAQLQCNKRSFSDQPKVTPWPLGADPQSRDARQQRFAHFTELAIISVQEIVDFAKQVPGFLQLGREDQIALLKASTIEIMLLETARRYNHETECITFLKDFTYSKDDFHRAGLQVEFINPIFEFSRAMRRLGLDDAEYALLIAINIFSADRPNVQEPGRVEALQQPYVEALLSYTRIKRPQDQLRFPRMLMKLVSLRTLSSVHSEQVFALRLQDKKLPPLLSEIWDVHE
# Outline: (§1)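 Agonist-induced recruitment of a fluorescein-tagged coactivator peptide to the LBD is detected via terbium anti-GST TR-FRET.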
# [2] = biological target: T2, GST tagged LXRalpha LBD (ligand binding domain) (Homo sapiens, UniProt Q13133); experiment: LanthaScreen TR-FRET Liver X Receptor Coactivator Assay, LXR alpha-LBD (co-activator recruitment; IP and % Emax relative to T0901317); type: biochemical; conditions: for LXR alpha IP (nM) / EC50: Inflection Point of co-activator recruitment, LXR alpha-LBD, TR-FRET; for Emax: efficacy at max dose in relation to reference T0901317, LXR alpha-LBD, read-out: LXR alpha actiivty at max dose (%)
# T2 construct: purchased Invitrogen pv4655
# T2 sequence (Q13133 209-447 limits assumed): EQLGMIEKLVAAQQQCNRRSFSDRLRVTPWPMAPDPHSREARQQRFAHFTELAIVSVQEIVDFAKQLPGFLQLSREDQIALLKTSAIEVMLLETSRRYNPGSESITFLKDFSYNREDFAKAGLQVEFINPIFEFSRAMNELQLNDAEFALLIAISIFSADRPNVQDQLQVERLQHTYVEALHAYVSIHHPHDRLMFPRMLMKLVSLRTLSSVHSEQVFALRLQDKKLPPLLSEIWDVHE
# Outline: as §1
SMILES,EC50 [1],Emax [1],LXR alpha IP (nM) [2],Emax [2],EC50 [2]
"CN(C)C(=O)c1ccc(N2CCC(CCCN(C)C(=O)[C@@](O)(c3cccc(C(F)(F)F)c3)C(F)(F)F)CC2)nc1Cl [Example 1-48, (S)-2-chloro-N,N-dimethyl-6-(4-(3-(3,3,3-trifluoro-2-hydroxy-N-methyl-2-(3-(trifluoromethyl)phenyl)pro-panamido)propyl)piperidin-1-yl)nicotinamide]",0.333 µM,43%,No IP,2%,–
"CCc1cccc([C@](O)(C(=O)N(C)CCCC2CCN(c3ccc(C(=O)N(C)C)c(Cl)n3)CC2)C(F)(F)F)c1 [Example 1-31, (S)-2-chloro-6-(4-(3-(2-(3-ethylphenyl)-3,3,3-trifluoro-2-hydroxy-N-methylpropanamido)propyl)piperidin-1-yl)-N,N-dimethylnicotinamide]",0.163 µM,56%,No IP,0%,–
"CN(C)C(=O)c1ccc(N2CCC(CCCN(C)C(=O)[C@](O)(c3cccc(OC4CC4)c3)C(F)(F)F)CC2)nc1Cl [Example 1-41, (R)-2-chloro-6-(4-(3-(2-(3-cyclopropoxyphenyl)-3,3,3-trifluoro-2-hydroxy-N-methylpropanamido)propyl)piperidin-1-yl)-N,N-dimethylnicotinamide]",0.105 µM,44%,No IP,0%,–
"CC(C)Oc1cccc(C(O)(C(=O)N(C)CCCC2CCN(c3ccc(C(=O)N(C)C)c(Cl)n3)CC2)C(F)(F)F)c1 (centres unmarked) [Example 1-32, 2-chloro-N,N-dimethyl-6-(4-(3-(3,3,3-trifluoro-2-hydroxy-2-(3-isopropoxyphenyl)-N-methylpropanamido)propyl)piperidin-1-yl)nicotinamide]",0.095 µM,48%,No IP,0%,–
"CN(C)C(=O)c1ccc(N2CCC(CCCN(C)C(=O)[C@@]3(c4cccc(Cl)c4)CCCO3)CC2)nc1Cl [Example 1-63, (S)-2-chloro-6-(4-(3-(2-(3-chlorophenyl)-N-methyltetrahydrofuran-2-carboxamido)propyl)piperidin-1-y)-N,N-dimethylnicotinamide]",0.368 µM,40%,No IP,0%,–
"COc1cccc([C@@](O)(C(=O)N(C)CCCC2CCN(c3ccc(C(=O)N(C)C)c(Cl)n3)CC2)C(F)(F)F)c1 [Example 1-9, (R)-2-chloro-N,N-dimethyl-6-(4-(3-(3,3,3-trifluoro-2-hydroxy-2-(3-methoxyphenyl)-N-methylpropanamido)propyl)piperidin-1-yl)nicotinamide]",0.046 µM,69%,No IP,4%,–
"CN(C)C(=O)c1ccc(N2CCC(CCCN(C)C(=O)[C@@](O)(c3ccccc3)C3CCC3)CC2)nc1Cl [Example 1-23, (S)-2-chloro-6-(4-(3-(2-cyclobutyl-2-hydroxy-N-methyl-2-phenylacetamido)propyl)piperidin-1-yl)-N,N-dimethylnicotinamide]",0.064 µM,90%,–,39%,1.76 µM
"CC(C)[C@](O)(C(=O)N(C)CCCC1CCN(c2ccc(C(=O)N(C)C)c(Cl)n2)CC1)C(F)(F)F [Example 1-4, (S)-2-chloro-6-(4-(3-(2-hydroxy-N,3-dimethyl-2-(trifluoromethyl)butanamido)propyl)piperidin-1-yl)-N,N-dimethylnicotinamide]",0.082 µM,92%,–,52%,1.18 µM
"CNC(=O)c1ccc(N2CCC(CCCN(C)C(=O)[C@](O)(c3cccc(OC)c3)C(F)(F)F)CC2)nc1Cl [Example 2-11, (R)-2-chloro-N-methyl-6-(4-(3-(3,3,3-trifluoro-2-hydroxy-2-(3-methoxyphenyl)-N-methylpropanamido)propyl)piperidin-1-yl)nicotinamide]",0.524 µM,60%,No IP,13%,–

# Second part, the compound after the results:
EC50 [1],Emax [1],LXR alpha IP (nM) [2],Emax [2],EC50 [2],SMILES
0.009 µM,29%,No IP,4%,–,"CN(C)C(=O)c1ccc(N2CCC([C@H]3C[C@H]3CN(C)C(=O)[C@](O)(c3cc(Cl)cc(Cl)c3)C(F)(F)F)CC2)nc1Cl [Example 15-6, 2-chloro-6-(4-((1R,2R)-2-(((R)-2-(3,5-dichlorophenyl)-3,3,3-trifluoro-2-hydroxy-N-methylpropanamido)methyl)cyclopropyl)piperidin-1-yl)-N,N-dimethylnicotinamdie]"
0.425 µM,94%,No IP,13%,–,"COc1cccc([C@@](O)(C(=O)NC[C@H](F)CC2CCN(c3ccc(C(=O)N(C)C)c(Cl)n3)CC2)C(F)(F)F)c1 [Example 3-7, 2-chloro-6-(4-((R)-2-fluoro-3-((R)-3,3,3-trifluoro-2-hydroxy-2-(3-methoxy-phenyl)propanamido)propyl)piperidin-1-yl)-N,N-dimethylnicotinamide]"
1.02 µM,31%,–,32%,6.1 µM,"CN(CC[C@@H]1CC12CCN(c1ccc(C(=O)NC3CC3)c(Cl)c1)CC2)C(=O)[C@](O)(c1ccccc1)C(F)(F)F [Example 7-26, 2-chloro-N-cyclopropyl-4-((S)-1-(2-((R)-3,3,3-trifluoro-2-hydroxy-N-methyl-2-phenylpropanamido)ethyl)-6-azaspiro[2.5]octan-6-yl)benzamide]"
0.014 µM,94%,–,31%,0.198 µM,"CN(C)C(=O)c1ccc(N2CCC(C)(CCCN(C)C(=O)[C@]3(c4ccccc4)CCCO3)CC2)nc1Cl [Example 9-3, (R)-2-chloro-N,N-dimethyl-6-(4-methyl-4-(3-(N-methyl-2-phenyltetrahydrofuran-2-carboxamido)propyl)piperidin-1-yl)nicotinamide]"
0.557 µM,27%,No IP,0%,–,"COc1cccc([C@@](O)(C(=O)N(C)CC[C@@H]2CC23CCN(c2ccc(C(=O)N(C)C(C)C)c(Cl)c2)CC3)C(F)(F)F)c1 [Example 7-30, 2-chloro-N-isopropyl-N-methyl-4-((S)-1-(2-((R)-3,3,3-trifluoro-2-hydroxy-2-(3-methoxy-phenyl)-N-methyl-propanamido)ethyl)-6-azaspiro[2.5]octan-6-yl)benzamide]"
0.127 µM,72%,No IP,0%,–,"CN(C)C(=O)c1ccc(N2CCC([C@@H]3C[C@H]3CN(C)C(=O)[C@](O)(c3ccccc3)C(F)(F)F)CC2)cc1Cl [Example 15-19, 2-chloro-N,N-dimethyl-4-(4-((1S,2R)-2-(((R)-3,3,3-trifluoro-2-hydroxy-N-methyl-2-phenylpropanamido)methyl)cyclopropyl)piperidin-1-yl)benzamide]"
0.264 µM,69%,No IP,3%,–,"CN(C)C(=O)c1ccc(N2CCC([C@@H]3C[C@H]3CNC(=O)[C@](O)(c3ccccc3)C(F)(F)F)CC2)nc1Cl [Example 15-14, 2-chloro-N,N-dimethyl-6-(4-((1S,2R)-2-(((R)-3,3,3-trifluoro-2-hydroxy-2-phenylpropanamido)methyl)cyclopropyl)piperidin-1-yl)nicotinamide]"
1.51 µM,39%,No IP,0%,–,"CN(C)C(=O)c1ccc(N2CCC(CCCNC(=O)OCc3ccccc3)CC2)nc1Cl [Example 5-5, benzyl 3-(1-(6-chloro-5-(dimethylcarbamoyl)pyridin-2-yl)piperidin-4-yl)propyl-carbamate]"
0.379 µM,25%,No IP,0%,–,"COc1cccc([C@@](O)(C(=O)N[C@@H](C)CCC2CCN(c3ccc(C(=O)N(C)C)c(Cl)n3)CC2)C(F)(F)F)c1 [Example 6-1, 2-chloro-N,N-dimethyl-6-(4-((S)-3-((R)-3,3,3-trifluoro-2-hydroxy-2-(3-methoxyphenyl)propanamido)butyl)piperidin-1-yl)nicotinamide]"
0.063 µM,67%,No IP,14%,–,"CN(C)C(=O)c1ccc(N2CCC(C)(CCCN(C)C(=O)[C@@]3(c4ccccc4)CCCO3)CC2)nc1Cl [Example 9-4, (S)-2-chloro-N,N-dimethyl-6-(4-methyl-4-(3-(N-methyl-2-phenyltetrahydrofuran-2-carboxamido)propyl)piperidin-1-yl)nicotinamide]"
0.162 µM,67%,No IP,10%,–,"CC(C)N(C)C(=O)c1ccc(N2CCC(CCCN(C)C(=O)[C@](O)(c3ccccc3)C(F)(F)F)CC2)cc1Cl [Example 4-10, (R)-2-chloro-N-isopropyl-N-methyl-4-(4-(3-(3,3,3-trifluoro-2-hydroxy-N-methyl-2-phenylpropanamido)propyl)piperidin-1-yl)benzamide]"

# Reference: patent US10961215B2, “N-aryl and N-heteroaryl piperidine derivatives as liver X receptor beta agonists, compositions, and their use” (Merck Sharp & Dohme Corp., priority 2016, dated 2021)
